The target in test [1] is T1, myeloperoxidase (Homo sapiens (Human), UniProt P05164). As to the kind of experiment: MPO Chlorination Assay (APF Assay). Format: biochemical. The conditions noted are these: MPO chlorination activity, 100 mM KPi (pH 7.4), 120 mM NaCl, ten minute preincubation; potency ranges defined in nM. How it is done:
(§1) [formula] where A=minimal Y value (activity level of inhibited sample), B=maximal Y value (activity level of uninhibited sample), C=Log IC50, D=Hill Slope, x=concentration of inhibitor. MPO Chlorination Assay (APF Assay) MPO chlorination activity was measured in 100 mM KPi (pH 7.4) by utilizing the non-fluorescent reagent Aminophenyl fluorescein (APF, Invitrogen Cat. #A36003). APF is cleaved by (—OCl) to yield the fluorescent compound fluorescein. Reactions were carried out in 50 μL total volume by adding a 25 μL mixture of 200 pM myeloperoxidase and 120 mM NaCl to 100 nL inhibitor in 100% DMSO in a 384 well, non-binding surface clear bottom plate (Corning #3655). Enzyme, inhibitor, and chloride were preincubated for ten minutes at room temperature.
After the ten minute preincubation, 25 μL of an APF mixture containing […], 120 mM NaCl and 10 μM H2O2 was added to the plate using the internal dispensing system of a Hammatsu FDSS 6000. Kinetic determinations were carried out immediately on the FDSS 6000 (3 minute kinetic read, 1 read every second, ex: 485 nm, em: 535 nm). IC50 values for inhibitors were calculated by taking the slope of the linear portion of the kinetic measurement (20 seconds to 80-120 secs).
(§2) IC50 values were calculated by determining the slope of the linear portion of the kinetic trace (180-540 secs), and using that calculated slope to determine % inhibition occurring at each concentration of inhibitor using the following equation:
[formula] where A=minimal Y value (activity level of inhibited sample), B=maximal Y value (activity level of uninhibited sample), C=Log IC50, D=Hill Slope, x=concentration of inhibitor. EPX Bromination Assay

The target of test [2] is T1, myeloperoxidase. As to the kind of experiment: MPO Peroxidation Assay (Amplex Red Assay). Format: biochemical. As to conditions: MPO peroxidation activity, 100 mM KPi (pH 7.4), ten minute preincubation; potency ranges defined in nM. How it is done:
MPO Peroxidation Assay (Amplex Red Assay)
MPO peroxidation activity was measured in 100 mM KPi (pH 7.4) by utilizing the non-fluorescent reagent Amplex Red (Invitrogen Cat. #A12222) which can be oxidized to the highly fluorescent resorufin. Amplex Red is oxidized by the peroxidase action of MPO to resorufin. Reactions were carried out in 50 μL total volume by adding a 25 μL mixture of 200 pM myeloperoxidase and 40 nM H2O2 (Sigma #349887) to 100 nL inhibitor in 100% DMSO in a 384 well Perkin Elmer Optiplate. Enzyme and compound were preincubated for ten minutes at room temperature.
After the ten minute preincubation, 25 μL of an Amplex Red mixture containing 200 μM Amplex Red and 10 mM H2O2 was added to the plate. Kinetic determinations were carried out immediately on a Perkin Elmer Envision (15 minute kinetic read, Ex: 535 nm, Em: 590 nm).
as §2, §1

SMILES strings stand for the structures.

Experimental findings from patent US10577383B2, “Macrocyclic inhibitors of myeloperoxidase” (BRISTOL-MYERS SQUIBB COMPANY, priority 2016, dated 2020) are described below.

T1 sequence (P05164 49-745): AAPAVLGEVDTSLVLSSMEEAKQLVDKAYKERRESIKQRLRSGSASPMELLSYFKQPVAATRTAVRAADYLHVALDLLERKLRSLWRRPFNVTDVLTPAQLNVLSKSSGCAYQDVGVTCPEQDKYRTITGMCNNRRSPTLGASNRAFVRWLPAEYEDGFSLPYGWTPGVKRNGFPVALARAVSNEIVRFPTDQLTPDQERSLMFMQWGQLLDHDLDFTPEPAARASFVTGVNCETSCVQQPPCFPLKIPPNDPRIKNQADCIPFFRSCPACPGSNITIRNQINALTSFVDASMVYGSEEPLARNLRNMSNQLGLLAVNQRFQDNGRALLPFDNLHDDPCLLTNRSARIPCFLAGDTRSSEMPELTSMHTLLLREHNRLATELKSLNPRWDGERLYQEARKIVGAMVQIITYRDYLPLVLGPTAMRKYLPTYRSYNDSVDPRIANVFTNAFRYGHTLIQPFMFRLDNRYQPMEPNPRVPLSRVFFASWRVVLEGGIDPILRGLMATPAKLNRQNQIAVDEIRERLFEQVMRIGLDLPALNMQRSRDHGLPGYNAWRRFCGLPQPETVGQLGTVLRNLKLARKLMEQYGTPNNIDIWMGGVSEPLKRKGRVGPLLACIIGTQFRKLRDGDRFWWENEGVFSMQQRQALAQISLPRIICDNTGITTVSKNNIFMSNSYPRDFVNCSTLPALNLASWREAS

For `NC(=O)CN1CCc2cccc(c2)Oc2cccc(c2)Cn2cc(cn2)C(c2cc(N)nc3[nH]nnc23)CC1` (centres unmarked) [Example 35, 2-(7-{15-Amino-3H-[1,2,3]triazolo[4,5-b]pyridin-7-yl}-18-oxa-3,4,10-triazatetracyclo[17.3.1.1^3,^6.1^13,^17]pentacosa-1(23),4,6(25),13,15,17(24),19,21-octaen-10-yl)acetamide], the IC50 in test [1] and in test [2] was 1000 to 10000 nM throughout.
For the compound `Nc1cc(C2CCN3C[C@H](COc4cccc(c4)Cn4cc2cn4)[C@@H](c2ccccc2)C3)c2nn[nH]c2n1` (stereo partly drawn) [Example 34, 7-[(12S,13R)-12-Phenyl-15-oxa-3,4,10-triazatetracyclo[14.3.1.1^3,^6.1^1^0,^13]docosa-1(20),4,6(22),16,18-pentaen-7-yl]-3H-[1,2,3]triazolo[4,5-b]pyridin-5-amine], the values for the IC50 in test [1] and in test [2] were 101 to 999 nM and 1000 to 10000 nM, respectively.
The corresponding values for `Nc1cc(C2CCNCC(=O)N(CCc3ccccc3)Cc3cccc(c3)Cn3cc2cn3)c2nn[nH]c2n1` (centres unmarked) [Example 33, 7-{5-Amino-3H-[1,2,3]triazolo[4,5-b]pyridin-7-yl}-13-(2-phenylethyl)-3,4,10,13-tetraazatricyclo[13.3.1.1^3,^6]icosa-1(19),4,6(20),15,17-pentaen-12-one] are 1 to 100 nM and 101 to 999 nM.
Regarding `Nc1cc(C2CCNCc3cccc(c3)Oc3cccc(c3)Cn3cc2cn3)c2nn[nH]c2n1` (centres unmarked) [Example 1, 7-{17-oxa-3,4,10-triazatetracyclo[16.3.1.1^3,^6.1^12,^1^6]tetracosa-1(22),4,6(24),12,14,16(23),18,20-octaen-7-yl}-3H-[1,2,3]triazolo[4,5-b]pyridin-5-amine], the IC50 is 1 to 100 nM in test [1] and 101 to 999 nM in test [2].
`C[C@@H]1Cc2cccc(c2)Oc2cccc(c2)Cn2cc(cn2)C(c2cc(N)nc3[nH]nnc23)CCN1` (stereo partly drawn) [Example 8, 7-[(11R)-11-Methyl-18-oxa-3,4,10-triazatetracyclo[17.3.1.1^3,^6.1^13,^1^7]pentacosa-1(23),4,6(25),13,15,17(24),19,21-octaen-7-yl]-3H-[1,2,3]triazolo[4,5-b]pyridin-5-amine]: the IC50 in test [1] fell in the range of 1 to 100 nM; in test [2], 101 to 999 nM.
The corresponding values for `Nc1cc(C2CCNCC3(CC3)COc3cccc(c3)Cn3cc2cn3)c2nn[nH]c2n1` (single isomer, unassigned) [Example 21, 7-{14′-Oxa-3′,4′,10′-triazaspiro[cyclopropane-1,12′-tricyclo[13.3.1.1^3,^6]icosane]-1′(19′),4′,6′(20′),15′,17′-pentaen-7′-yl}-3H-[1,2,3]triazolo[4,5-b]pyridin-5-amine] are 1 to 100 nM and 101 to 999 nM.
For `Nc1cc(C2CCN3C[C@H](Cc4ccccc4)[C@@H](C3)Oc3cccc(c3)Cn3cc2cn3)c2nn[nH]c2n1` (stereo partly drawn) [Example 31, 7-[(3S,4S)-4-Benzyl-2-oxa-6,12,13-triazatetracyclo[13.3.1.1^3,^6.1^1^0,^13]henicosa-1(18),10(20),11,15(19),16-pentaen-9-yl]-3H-[1,2,3]triazolo[4,5-b]pyridin-5-amine], the results for the IC50 in test [1] and in test [2] were 1 to 100 nM and 101 to 999 nM, respectively.
Consider `Nc1cc(C2CCNC34CCC(c5ccccc5)(CC3)[C@@H](C4)Oc3cccc(c3)Cn3cc2cn3)c2nn[nH]c2n1` (stereo partly drawn) [Example 28, 7-[(17R)-18-Phenyl-16-oxa-2,8,9-triazapentacyclo[16.2.2.1^1,^1^7.1^6,^9.1^11,^1^5]pentacosa-6(25),7,11(24),12,14-pentaen-5-yl]-3H-[1,2,3]triazolo[4,5-b]pyridin-5-amine], for which the IC50 in test [1] fell in the range of 1 to 100 nM; in test [2], 1000 to 10000 nM.
On the same counts, the results for `Nc1cc(C2CCNC34CCC(c5ccccc5)(CC3)[C@H](C4)Oc3cccc(c3)Cn3cc2cn3)c2nn[nH]c2n1` (stereo partly drawn) [Example 27, 7-[(17S)-18-Phenyl-16-oxa-2,8,9-triazapentacyclo[16.2.2.1^1,^1^7.1^6,^9.1^11,^1^5]pentacosa-6(25),7,11(24),12,14-pentaen-5-yl]-3H-[1,2,3]triazolo[4,5-b]pyridin-5-amine] are 1 to 100 nM and 1 to 100 nM.
The corresponding values for `Nc1cc(C2CCNCC3(CCCC3)COc3cccc(c3)Cn3cc2cn3)c2nn[nH]c2n1` (centres unmarked) [Example 22, 7-{14′-Oxa-3′,4′,10′-triazaspiro[cyclopentane-1,12′-tricyclo[13.3.1.1^3,^6]icosane]-1′(19′),4′,6′(20′),15′,17′-pentaen-7′-yl}-3H-[1,2,3]triazolo[4,5-b]pyridin-5-amine] are 1 to 100 nM and 101 to 999 nM.
On the same counts, the results for `Nc1cc(C2CCNCCc3cccc(c3)Oc3cccc(c3)Cn3cc2cn3)c2nn[nH]c2n1` (single isomer, unassigned) [Example 4, 7-{18-oxa-3,4,10-triazatetracyclo[17.3.1.1^3,^6.1^13,^1^7]pentacosa-1(23),4,6(25),13,15,17(24),19,21-octaen-7-yl}-3H-[1,2,3]triazolo[4,5-b]pyridin-5-amine] are 101 to 999 nM and 101 to 999 nM.
`Nc1cc(C2CCNC34CCC(c5ccccc5)(CC3)[C@H](C4)Oc3cccc(c3)CCn3cc2cn3)c2nn[nH]c2n1` (stereo partly drawn) [Example 29, 7-[(18S)-19-Phenyl-17-oxa-2,8,9-triazapentacyclo[17.2.2.1^1,^1^8.1^6,^9.1^12,^1^6]hexacosa-6(26),7,12(25),13,15-pentaen-5-yl]-3H-[1,2,3]triazolo[4,5-b]pyridin-5-amine]: the concentration for half-maximal inhibition (IC50) in test [1] and in test [2] was 1 to 100 nM in each case.
With `Nc1cc(C2CCNCc3ccc(F)c(c3)OCc3cccc(c3)Cn3cc2cn3)c2nn[nH]c2n1` (centres unmarked) [Example 14, 7-{15-Fluoro-17-oxa-3,4,10-triazatetracyclo[17.3.1.1^3,^6.1^12,^1^6]pentacosa-1(23),4,6(25),12(24),13,15,19,21-octaen-7-yl}-3H-[1,2,3]triazolo[4,5-b]pyridin-5-amine], the figures for the IC50 in test [1] and in test [2] were 1 to 100 nM and 1000 to 10000 nM, respectively.
On the same counts, the results for `Nc1cc(C2CCNCc3ccc(F)c(c3)COc3ccc(F)c(c3)Cn3cc2cn3)c2nn[nH]c2n1` (centres unmarked) [Example 24, 7-{15,22-Difluoro-18-oxa-3,4,10-triazatetracyclo[17.3.1.1^3,^6.1^12,^1^6]pentacosa-1(23),4,6(25),12,14,16(24),19,21-octaen-7-yl}-3H-[1,2,3]triazolo[4,5-b]pyridin-5-amine] are 1 to 100 nM and 101 to 999 nM.
The corresponding values for `CN1CCC(c2cc(N)nc3[nH]nnc23)c2cnn(c2)Cc2cccc(c2)Oc2cccc(c2)C1` (centres unmarked) [Example 6, 7-{10-methyl-17-oxa-3,4,10-triazatetracyclo[16.3.1.1^3,^6.1^12,^1^6]tetracosa-1(22),4,6(24),12,14,16(23),18,20-octaen-7-yl}-3H-[1,2,3]triazolo[4,5-b]pyridin-5-amine] are 101 to 999 nM and 1000 to 10000 nM.
For `Nc1cc(C2CCNCCCOc3cccc(c3)Cn3cc2cn3)c2nn[nH]c2n1` (centres unmarked) [Example 17, 7-{14-Oxa-3,4,10-triazatricyclo[13.3.1.1^3,^6]icosa-1(19),4,6(20),15,17-pentaen-7-yl}-3H-[1,2,3]triazolo[4,5-b]pyridin-5-amine], the IC50 in test [1] fell in the range of 101 to 999 nM; in test [2] it was 1000 to 10000 nM.
